Measured values from US20260183302A1, “PDK1 REGULATORY COMPOUND AND COMPOSITION CONTAINING THE SAME” (PROVIBIO CO., LTD., priority 2024, published 2026).

Experiments:
[1] = test system: T cells isolated from mouse spleens; assay: T cell proliferation inhibition (CFSE flow cytometry, anti-CD3/anti-CD28 stimulation); format: cell-based, C57BL/6 mice; conditions: three days
Description: To verify the T cell proliferation inhibitory effect of the compounds according to the present invention, the following experiment was performed based on flow cytometry analysis using carboxyfluorescein diacetate succinimidyl ester (CFSE), a fluorescent dye that binds to intracellular molecules via covalent bonds.
Spleens were extracted from 7-week-old C57BL/6 mice, ground, and then separated into single cells using a strainer (40 μm pore size, SPL). Red blood cells were removed using ACK (Ammonium-Chloride-Potassium) lysis buffer to isolate white blood cells.
Finally, using a MACS Magnetic Stand and LS column, T cells were isolated from the spleen.
The T cells isolated from the spleen were resuspended in 1 mL of free medium (RPMI-1640+200 U/mL penicillin+200 μg/mL streptomycin), and 0.3 μL of CFSE (10 mM) was added. The mixture was incubated at 37° C. for 5 minutes.
Free medium (10 mL) was added to stop the reaction, and the cells were centrifuged to obtain the cell pellet.
RPMI 1640 medium containing 10% FBS, 100 U/mL penicillin, 100 μg/mL streptomycin, and resuspended the cells. The cells were then seeded into a 96-well plate at a density of 2× 10^5 cells per well and activated with CD3 and CD28 antibodies (0.5 μg/mL each) to activate T cells.
The compound diluted in DMSO was added at concentrations of 10 nM, 100 nM, 1 μM, 10 μM, 30 μM, and 50 μM, with three wells per concentration, and cultured at 37° C. and 5% CO2 for three days. The cells were then analyzed using a FACS Canto instrument.
The proliferation inhibition rate (%) was calculated using the following formula: […]

[2] = test system: Human B Lymphocyte cell line, SU-DHL-8; assay: Relative cell viability, SU-DHL-8 (CCK-8); format: cell-based; conditions: 48 hours, untreated (DMSO) = 100%
Description: Human-derived B lymphoma cell line SU-DHL-8 (Cat. #CRL-2961) purchased from ATCC was cultured in RPMI-1640 medium containing 10% FBS, 100 U/mL penicillin, and 100 μg/mL streptomycin.
The cell culture medium was then harvested, centrifuged at 1,300 rpm for 5 minutes, and the supernatant was removed. The cells were resuspended in the same medium and dispensed into a 96-well plate (Costar 96-well cell culture plate, Corning) at 90 μL per well, resulting in the conditions specified in Table 5.
Then, 10 μL of CCK-8 was added to each well, and the plates were incubated again at 37° C. in a 5% CO2 incubator for 4 hours.
In other words, when the survival rate of untreated cells (DMSO) is set at 100%, the relative cell survival rate in each group treated with the drug at different concentrations is indicated.

| SMILES | Proliferation inhibition rate (%) ([1]; concentration 100 nM) | Proliferation inhibition rate (%) ([1]; concentration 1 μM) | Proliferation inhibition rate (%) ([1]; concentration 10 μM) | Proliferation inhibition rate (%) ([1]; concentration 30 μM) | Proliferation inhibition rate (%) ([1]; concentration 50 μM) | Relative cell viability (%) ([2]; SU-DHL-8, 1 μM) | Relative cell viability (%) ([2]; SU-DHL-8, 10 μM) | Relative cell viability (%) ([2]; SU-DHL-8, 30 μM) | Proliferation inhibition rate (%) ([1]; concentration 10 nM) | Relative cell viability (%) ([2]; SU-DHL-8, 50 μM) | Proliferation inhibition rate (%) ([1]; concentration 10 nM, listed as PBK-2024-024, 0.01 µM) | Relative cell viability (%) ([2]; SU-DHL-8, 1 μM, listed as PBK-2024-024, 1 µM) | Relative cell viability (%) ([2]; SU-DHL-8, 10 μM, listed as PBK-2024-024, 10 µM) | Relative cell viability (%) ([2]; SU-DHL-8, 30 μM, listed as PBK-2024-024, 30 µM) | Relative cell viability (%) ([2]; SU-DHL-8, 50 μM, listed as PBK-2024-024, 50 µM) |
| --- | --- | --- | --- | --- | --- | --- | --- | --- | --- | --- | --- | --- | --- | --- | --- |
| CC1CN(CCCCCCCCCCCCNC(=O)c2cccnc2N)CC(C)O1 (stereo not shown) [Compound 21, 2-Amino-N-(12-(2,6-dimethylmorpholino)dodecyl) nicotinamide] | 100.00% | 100.00% | 100.00% | 100.00% | 100.00% | 9.64% | 7.68% | 3.70% | – | – | – | – | – | – | – |
| CC1(C)CCN(CCCCCCCCCCCCNC(=O)c2cccnc2N)C1 [Compound 22, 2-Amino-N-(12-(3,3-dimethylpyrrolidin-1-yl)dodecyl) nicotinamide] | 100.00% | 100.00% | 100.00% | 100.00% | 100.00% | 6.46% | 2.85% | 2.45% | −0.80% | 1.67% | – | – | – | – | – |
| CC1CCN(CCCCCCCCCCCCNC(=O)c2cccnc2N)C1 (stereo not shown) [Compound 24, 2-Amino-N-(12-(3-methylpyrrolidin-1-yl)dodecyl) nicotinamide] | 100.00% | 100.00% | 100.00% | 100.00% | 100.00% | 8.38% | 1.65% | 0.62% | – | – | – | – | – | – | – |
| Nc1ncccc1C(=O)NCCCCCCCCCCCCN1CCS(=O)(=O)CC1 [Compound 25, 2-Amino-N-(12-(1,1-dioxidothiomorpholino)dodecyl) nicotinamide] | – | 100.00% | 100.00% | 100.00% | 100.00% | 9.73% | 1.26% | 0.11% | – | 0.95% | – | – | – | – | – |
| Nc1ncccc1C(=O)NCCCCCCCCCCCCN1CCC(F)C1 (stereo not shown) [Compound 26, 2-Amino-N-(12-(3-fluoropyrrolidin-1-yl)dodecyl) nicotinamide] | 100.00% | 100.00% | 100.00% | 100.00% | 100.00% | 1.70% | 1.04% | 0.05% | – | – | – | – | – | – | – |
| COC1CCN(CCCCCCCCCCCCNC(=O)c2cccnc2N)C1 (stereo not shown) [Compound 32, 2-Amino-N-(12-(3-methoxypyrrolidin-1-yl)dodecyl) nicotinamide] | – | – | – | – | – | – | – | – | – | – | 0.29% | 3.48% | 3.01% | 1.97% | 1.45% |
| CC1CNCCN1CCCCCCCCCCCCNC(=O)c1cccnc1N (stereo not shown) [Compound 35, 2-Amino-N-(12-(2-methylpiperazin-1-yl)dodecyl) nicotinamide] | 100.00% | 100.00% | 100.00% | 100.00% | 100.00% | 1.18% | 0.64% | 0.42% | – | – | – | – | – | – | – |
| CN1CCN(CCCCCCCCCCCCNC(=O)c2ccncc2Cl)CC1 [Compound 199, 3-Chloro-N-(12-(4-methylpiperazin-1-yl)dodecyl) isonicotinamide] | 0.00% | 0.00% | 40.00% | 100.00% | 100.00% | – | – | – | 0.00% | – | – | – | – | – | – |
| CN1CCN(CCCCCCCCCCCCNC(=O)c2c(Cl)cncc2Cl)CC1 [Compound 201, 3,5-Dichloro-N-(12-(4-methylpiperazin-1-yl)dodecyl) isonicotinamide] | 6.66% | 8.54% | 78.44% | 100.00% | 100.00% | – | – | – | 7.24% | – | – | – | – | – | – |
| Cc1ccc(C(=O)NCCCCCCCCCCCCN2CCN(C)CC2)nc1 [Compound 202, 5-Methyl-N-(12-(4-methylpiperazin-1-yl)dodecyl) picolinamide] | 13.17% | 18.96% | 100.00% | 100.00% | 100.00% | – | – | – | 4.05% | – | – | – | – | – | – |
| CN1CCN(CCCCCCCCCCCCNC(=O)c2ccc(F)cn2)CC1 [Compound 203, 5-Fluoro-N-(12-(4-methylpiperazin-1-yl)dodecyl) picolinamide] | 1.16% | 6.80% | 100.00% | 100.00% | 100.00% | – | – | – | −4.49% | – | – | – | – | – | – |
| COc1ccc(C(=O)NCCCCCCCCCCCCN2CCN(C)CC2)nc1 [Compound 204, 5-methoxy-N-(12-(4-methylpiperazin-1-yl)dodecyl) picolinamide] | −0.14% | 12.30% | 95.01% | 100.00% | 100.00% | – | – | – | −2.60% | – | – | – | – | – | – |
| CN1CCN(CCCCCCCCCCCCNC(=O)c2ccncc2N)CC1 [Compound 209, 3-Amino-N-(12-(4-methylpiperazin-1-yl)dodecyl) isonicotinamide] | 1.59% | 18.81% | 84.52% | 100.00% | 100.00% | – | – | – | −1.45% | – | – | – | – | – | – |
